Experimental findings from PubChem BioAssay (NCI) are described below.

Some test systems named below: LOX IMVI melanoma; K-562 leukemia; MOLT-4 leukemia; SN12C renal; NCI/ADR-RES ovarian; NCI-H522 lung; HCT-15 colon; SK-MEL-2 melanoma; SF-295 CNS; UO-31 renal; NCI-H226 lung; CCRF-CEM leukemia; U251 CNS; RXF 393 renal; SK-MEL-5 melanoma; RPMI-8226 leukemia; T-47D breast; SK-OV-3 ovarian; HL-60(TB) leukemia.
Test in all cases: NCI anticancer screen, dose series, 48 h

SMILES strings stand for the structures.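 A five-concentration, 48-hour dose response in 96-well plates underlies each endpoint, interpolated linearly between surrounding concentrations. TGI marks complete inhibition of growth.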 Where only a bound is given, the exact number is not on record here.

For `Cc1ccnc2nc3[nH]c4ccccc4c3cc12`, the TGI in the experiment on LOX IMVI melanoma, with K-562 leukemia, in the experiment with MOLT-4 leukemia, with SN12C renal, with NCI/ADR-RES ovarian and in the experiment with NCI-H522 lung was more than 100 µM each time. The TGI in the experiment on HCT-15 colon, in the experiment with SK-MEL-2 melanoma, with SF-295 CNS, with UO-31 renal, with NCI-H226 lung and with CCRF-CEM leukemia was more than 100 µM throughout. The TGI in the experiment with U251 CNS, with RXF 393 renal, in the experiment with SK-MEL-5 melanoma, in the experiment on RPMI-8226 leukemia and with T-47D breast was more than 100 µM in each case.

As for `COc1ccc(N2C(=O)/C(=C\c3cc(OC)c(OC)c(OC)c3)S(=O)(=O)C2c2ccccc2)cc1` (stereo not drawn), the TGI in the experiment on LOX IMVI melanoma is more than 100 µM; with K-562 leukemia it was more than 100 µM; in the experiment with MOLT-4 leukemia, more than 100 µM; in the experiment with SN12C renal it was more than 100 µM; in the experiment with NCI/ADR-RES ovarian, 78.9 µM; with NCI-H522 lung it was more than 100 µM. Further, the TGI is more than 100 µM with HCT-15 colon; 71.1 µM in the experiment with SK-MEL-2 melanoma; more than 100 µM in the experiment on SF-295 CNS; more than 100 µM with UO-31 renal; more than 100 µM with NCI-H226 lung; more than 100 µM with CCRF-CEM leukemia. The TGI in the experiment with U251 CNS, in the experiment on RXF 393 renal, in the experiment on SK-MEL-5 melanoma, in the experiment on SK-OV-3 ovarian, with RPMI-8226 leukemia and in the experiment on T-47D breast was more than 100 µM each time.

Take `CCOC(=O)Oc1cc2c(ccn2C)c2c1c1ccccc1n2C(=O)OCC`: the TGI in the experiment on LOX IMVI melanoma, with K-562 leukemia, in the experiment with MOLT-4 leukemia, in the experiment on SN12C renal, with NCI/ADR-RES ovarian and in the experiment with NCI-H522 lung was more than 100 µM each time. Moreover, the TGI with HCT-15 colon, in the experiment with SK-MEL-2 melanoma, in the experiment on SF-295 CNS, in the experiment with UO-31 renal, in the experiment with NCI-H226 lung and in the experiment with CCRF-CEM leukemia was more than 100 µM throughout. Moreover, the TGI in the experiment on U251 CNS, in the experiment with RXF 393 renal, in the experiment on SK-MEL-5 melanoma, in the experiment on SK-OV-3 ovarian, in the experiment with RPMI-8226 leukemia and in the experiment with T-47D breast was more than 100 µM throughout.

As for `CC(C)N1CCCOC(c2ccc([N+](=O)[O-])cc2)O1` (stereo not drawn), the TGI in the experiment on LOX IMVI melanoma, with K-562 leukemia, in the experiment on MOLT-4 leukemia, with SN12C renal, in the experiment with NCI/ADR-RES ovarian and in the experiment with NCI-H522 lung was more than 100 µM each time. For the same molecule, the TGI in the experiment on HCT-15 colon, in the experiment on SK-MEL-2 melanoma, in the experiment on SF-295 CNS, in the experiment on UO-31 renal, in the experiment with NCI-H226 lung and in the experiment with CCRF-CEM leukemia was more than 100 µM each time. Also, the TGI with U251 CNS, with RXF 393 renal, in the experiment on SK-MEL-5 melanoma, in the experiment on SK-OV-3 ovarian and in the experiment on T-47D breast was more than 100 µM in each case.

Regarding `COc1ccccc1N1C(=O)/C(=C\c2cc(OC)c(OC)c(OC)c2)S(=O)(=O)C1c1ccccc1` (stereo not drawn), the TGI with LOX IMVI melanoma is more than 100 µM; with K-562 leukemia, more than 100 µM; in the experiment with MOLT-4 leukemia, more than 100 µM; in the experiment with SN12C renal, more than 100 µM; in the experiment with NCI/ADR-RES ovarian it was 72.1 µM; with NCI-H522 lung, 50.7 µM. Besides, the TGI with HCT-15 colon was more than 100 µM; with SK-MEL-2 melanoma, more than 100 µM; with SF-295 CNS it was more than 100 µM; in the experiment with UO-31 renal, more than 100 µM; with NCI-H226 lung it was more than 100 µM; in the experiment on CCRF-CEM leukemia, 61.2 µM. The TGI is more than 100 µM in the experiment on U251 CNS; 61.1 µM in the experiment on RXF 393 renal; more than 100 µM with SK-MEL-5 melanoma; 76.5 µM in the experiment on SK-OV-3 ovarian; 57.1 µM with RPMI-8226 leukemia; more than 100 µM with T-47D breast.

Take `N=C(N)C1CN(CC=O)C(=O)NC1=O` (stereo not drawn): the TGI in the experiment with LOX IMVI melanoma, in the experiment on K-562 leukemia, in the experiment with HL-60(TB) leukemia, in the experiment with MOLT-4 leukemia, in the experiment with SN12C renal and in the experiment with NCI/ADR-RES ovarian was more than 100 µM each time. For the same molecule, the TGI in the experiment on HCT-15 colon, with SF-295 CNS, with UO-31 renal, with NCI-H226 lung, in the experiment on CCRF-CEM leukemia and with U251 CNS was more than 100 µM throughout. Besides, the TGI with SK-MEL-5 melanoma, in the experiment on SK-OV-3 ovarian, with RPMI-8226 leukemia and in the experiment on T-47D breast was more than 100 µM each time.

Turning to `C[C@@H]1OC2(O)[C@@H]3CCCN3C(=O)N(Cc3ccccc3)N2C1=O` (stereo partly drawn), the TGI with LOX IMVI melanoma, in the experiment on HL-60(TB) leukemia, in the experiment on MOLT-4 leukemia, with SN12C renal, in the experiment on NCI/ADR-RES ovarian and in the experiment on HCT-15 colon was more than 100 µM each time. Moreover, the TGI with SK-MEL-2 melanoma, with SF-295 CNS, with NCI-H226 lung, in the experiment on CCRF-CEM leukemia, in the experiment on RXF 393 renal and in the experiment on SK-MEL-5 melanoma was more than 100 µM in each case. Besides, the TGI in the experiment on SK-OV-3 ovarian and in the experiment on T-47D breast was more than 100 µM each time.

For `COC(=O)c1c(C(=O)OC)c(C(c2ccccc2)c2ccccc2)n(-c2ccccc2)c1Cl`, the TGI in the experiment on K-562 leukemia was more than 10 µM; with HL-60(TB) leukemia, more than 10 µM; with MOLT-4 leukemia, 8.1 µM; in the experiment on SN12C renal, more than 10 µM; with NCI/ADR-RES ovarian, more than 10 µM; with HCT-15 colon, more than 10 µM. Also, the TGI with SF-295 CNS, with UO-31 renal, with NCI-H226 lung, with CCRF-CEM leukemia, in the experiment with U251 CNS and in the experiment with RXF 393 renal was more than 10 µM in each case. The TGI with SK-MEL-5 melanoma, in the experiment with RPMI-8226 leukemia and in the experiment with T-47D breast was more than 10 µM each time.
